According to article PMC5267425, “Identification of small molecule modulators of HIV-1 Tat and Rev protein accumulation” (Retrovirology, 2017):
“And” between values parts separate entries of the source, which are not always exact repeats. Equal values may be shown once.

Test system: cellular gene expression in HeLa rtTA HIV∆Mls cells

Cc1cc(NCc2cccnc2)n2ncc(-c3ccc(Cl)cc3)c2n1 [Compound 791, 3-(4-chlorophenyl)-5-methyl-N-(3-pyridinylmethyl)pyrazolo[1,5-a]pyrimidin-7-amine]
LYSMD1 expression level (gene LYSMD1, 9147791-treated cells, two replicates): 6.83 and 7.15
MAP3K12 expression level (gene MAP3K12, 9147791-treated cells, two replicates): 10.58 and 11.11
MBD6 expression level (gene MBD6, 9147791-treated cells, two replicates): 19.55 and 19.21
MBLAC2 expression level (gene MBLAC2, 9147791-treated cells, two replicates): 3.53 and 3.60
MED1 expression level (gene MED1, 9147791-treated cells, two replicates): 16.72 and 17.76
MKKS expression level (gene MKKS, 9147791-treated cells, two replicates): 33.76 and 31.64
MLKL expression level (gene MLKL, 9147791-treated cells, two replicates): 8.65 and 8.80
MORC2 expression level (gene MORC2, 9147791-treated cells, two replicates): 14.30 and 13.93
MRPL1 expression level (gene MRPL1, 9147791-treated cells, two replicates): 13.37 and 12.84
MRPS16 expression level (gene MRPS16, 9147791-treated cells, two replicates): 56.39 and 57.78
MRPS18B expression level (gene MRPS18B, 9147791-treated cells, two replicates): 84.33 and 82.56
MSL1 expression level (gene MSL1, 9147791-treated cells, two replicates): 19.35 and 20.08
MTIF2 expression level (gene MTIF2, 9147791-treated cells, two replicates): 23.18 and 24.37
MXI1 expression level (gene MXI1, 9147791-treated cells, two replicates): 11.96 and 11.72
MYSM1 expression level (gene MYSM1, 9147791-treated cells, two replicates): 6.50 and 6.96
NADK expression level (gene NADK, 9147791-treated cells, two replicates): 51.36 and 49.09
NFX1 expression level (gene NFX1, 9147791-treated cells, two replicates): 16.88 and 17.47
NHLRC2 expression level (gene NHLRC2, 9147791-treated cells, two replicates): 5.90 and 6.13
NR2C1 expression level (gene NR2C1, 9147791-treated cells, two replicates): 12.80 and 13.28
NSMAF expression level (gene NSMAF, 9147791-treated cells, two replicates): 20.81 and 21.54
NT5DC3 expression level (gene NT5DC3, 9147791-treated cells, two replicates): 2.73 and 2.69
NUFIP2 expression level (gene NUFIP2, 9147791-treated cells, two replicates): 18.50 and 18.17
OSMR expression level (gene OSMR, 9147791-treated cells, two replicates): 33.63 and 36.47
OTUD6B expression level (gene OTUD6B, 9147791-treated cells, two replicates): 9.61 and 9.84
PATL1 expression level (gene PATL1, 9147791-treated cells, two replicates): 30.78 and 31.35
PEX19 expression level (gene PEX19, 9147791-treated cells, two replicates): 25.90 and 26.36
PHF1 expression level (gene PHF1, 9147791-treated cells, two replicates): 27.67 and 28.09
PIP4K2C expression level (gene PIP4K2C, 9147791-treated cells, two replicates): 17.91 and 18.93
PLD3 expression level (gene PLD3, 9147791-treated cells, two replicates): 114.37 and 115.61
PLD6 expression level (gene PLD6, 9147791-treated cells, two replicates): 4.96 and 5.07
PLEKHG4 expression level (gene PLEKHG4, 9147791-treated cells, two replicates): 9.09 and 8.55
PLRG1 expression level (gene PLRG1, 9147791-treated cells, two replicates): 18.77 and 17.99
PNPO expression level (gene PNPO, 9147791-treated cells, two replicates): 12.32 and 11.96
POLR1B expression level (gene POLR1B, 9147791-treated cells, two replicates): 13.48 and 13.61
PORCN expression level (gene PORCN, 9147791-treated cells, two replicates): 8.43 and 8.53
PPIE expression level (gene PPIE, 9147791-treated cells, two replicates): 36.69 and 37.52
PPPDE1 expression level (gene PPPDE1, 9147791-treated cells, two replicates): 25.65 and 26.33
PPPDE2 expression level (gene PPPDE2, 9147791-treated cells, two replicates): 24.63 and 25.91
PRDX5 expression level (gene PRDX5, 9147791-treated cells, two replicates): 527.71 and 539.87
PRKAB1 expression level (gene PRKAB1, 9147791-treated cells, two replicates): 9.24 and 9.53
PRKAB2 expression level (gene PRKAB2, 9147791-treated cells, two replicates): 9.63 and 9.56
PRKAG2 expression level (gene PRKAG2, 9147791-treated cells, two replicates): 4.40 and 4.65
PRPF38B expression level (gene PRPF38B, 9147791-treated cells, two replicates): 24.17 and 23.91
RAD23A expression level (gene RAD23A, 9147791-treated cells, two replicates): 139.22 and 133.17
RAD51C expression level (gene RAD51C, 9147791-treated cells, two replicates): 25.11 and 27.22
RBM18 expression level (gene RBM18, 9147791-treated cells, two replicates): 22.42 and 23.14
RDH14 expression level (gene RDH14, 9147791-treated cells, two replicates): 13.62 and 14.25
REPS1 expression level (gene REPS1, 9147791-treated cells, two replicates): 11.08 and 11.40
RETSAT expression level (gene RETSAT, 9147791-treated cells, two replicates): 39.84 and 41.20
RFNG expression level (gene RFNG, 9147791-treated cells, two replicates): 19.96 and 19.40
RILPL1 expression level (gene RILPL1, 9147791-treated cells, two replicates): 8.85 and 9.19
RIPK2 expression level (gene RIPK2, 9147791-treated cells, two replicates): 9.51 and 9.78
RNF135 expression level (gene RNF135, 9147791-treated cells, two replicates): 6.73 and 6.55
RNF139 expression level (gene RNF139, 9147791-treated cells, two replicates): 14.33 and 14.56
RNF146 expression level (gene RNF146, 9147791-treated cells, two replicates): 8.67 and 9.36
RNF212 expression level (gene RNF212, 9147791-treated cells, two replicates): 23.40 and 24.53
RPRD1A expression level (gene RPRD1A, 9147791-treated cells, two replicates): 17.67 and 18.23
RPUSD3 expression level (gene RPUSD3, 9147791-treated cells, two replicates): 51.54 and 51.13
RTTN expression level (gene RTTN, 9147791-treated cells, two replicates): 5.05 and 5.18
RUNDC1 expression level (gene RUNDC1, 9147791-treated cells, two replicates): 7.46 and 7.03
SDCCAG3 expression level (gene SDCCAG3, 9147791-treated cells, two replicates): 69.16 and 66.70
SENP1 expression level (gene SENP1, 9147791-treated cells, two replicates): 10.13 and 10.39
SENP5 expression level (gene SENP5, 9147791-treated cells, two replicates): 9.14 and 9.80
SIKE1 expression level (gene SIKE1, 9147791-treated cells, two replicates): 10.16 and 10.46
SLC26A11 expression level (gene SLC26A11, 9147791-treated cells, two replicates): 7.10 and 7.46
SLC35B3 expression level (gene SLC35B3, 9147791-treated cells, two replicates): 9.59 and 9.09
SLC38A6 expression level (gene SLC38A6, 9147791-treated cells, two replicates): 8.14 and 8.35
SLC39A6 expression level (gene SLC39A6, 9147791-treated cells, two replicates): 55.62 and 53.39
SMEK2 expression level (gene SMEK2, 9147791-treated cells, two replicates): 22.28 and 23.17
SQSTM1 expression level (gene SQSTM1, 9147791-treated cells, two replicates): 402.87 and 398.40
ST6GALNAC4 expression level (gene ST6GALNAC4, 9147791-treated cells, two replicates): 39.60 and 40.55
ST7L expression level (gene ST7L, 9147791-treated cells, two replicates): 3.77 and 3.85
STAMBP expression level (gene STAMBP, 9147791-treated cells, two replicates): 26.17 and 25.95
STK24 expression level (gene STK24, 9147791-treated cells, two replicates): 98.53 and 99.63
STK36 expression level (gene STK36, 9147791-treated cells, two replicates): 5.44 and 5.78
STK40 expression level (gene STK40, 9147791-treated cells, two replicates): 6.18 and 6.16
STX4 expression level (gene STX4, 9147791-treated cells, two replicates): 45.64 and 43.00
TBCCD1 expression level (gene TBCCD1, 9147791-treated cells, two replicates): 7.66 and 8.12
TGDS expression level (gene TGDS, 9147791-treated cells, two replicates): 10.85 and 10.65
TIGD2 expression level (gene TIGD2, 9147791-treated cells, two replicates): 10.77 and 11.51
TMEM33 expression level (gene TMEM33, 9147791-treated cells, two replicates): 13.53 and 12.82
TMEM68 expression level (gene TMEM68, 9147791-treated cells, two replicates): 5.74 and 5.79
TMEM120B expression level (gene TMEM120B, 9147791-treated cells, two replicates): 7.48 and 7.87
TMEM126B expression level (gene TMEM126B, 9147791-treated cells, two replicates): 51.64 and 47.99
TMEM134 expression level (gene TMEM134, 9147791-treated cells, two replicates): 16.44 and 17.07
TMEM167B expression level (gene TMEM167B, 9147791-treated cells, two replicates): 13.61 and 13.31
TRIM38 expression level (gene TRIM38, 9147791-treated cells, two replicates): 6.07 and 6.47
TRMT2A expression level (gene TRMT2A, 9147791-treated cells, two replicates): 11.24 and 11.68
TRNT1 expression level (gene TRNT1, 9147791-treated cells, two replicates): 14.44 and 15.17
TTC9C expression level (gene TTC9C, 9147791-treated cells, two replicates): 44.37 and 45.86
USP3 expression level (gene USP3, 9147791-treated cells, two replicates): 15.95 and 16.26
USP45 expression level (gene USP45, 9147791-treated cells, two replicates): 4.03 and 4.15
VHL expression level (gene VHL, 9147791-treated cells, two replicates): 23.74 and 22.96
WDR73 expression level (gene WDR73, 9147791-treated cells, two replicates): 10.95 and 11.17
XPO5 expression level (gene XPO5, 9147791-treated cells, two replicates): 32.34 and 33.37
ZBED5 expression level (gene ZBED5, 9147791-treated cells, two replicates): 26.69 and 27.18
ZBTB26 expression level (gene ZBTB26, 9147791-treated cells, two replicates): 10.25 and 9.99
ZBTB34 expression level (gene ZBTB34, 9147791-treated cells, two replicates): 4.78 and 4.42
ZCCHC4 expression level (gene ZCCHC4, 9147791-treated cells, two replicates): 6.80 and 6.69
ZCCHC8 expression level (gene ZCCHC8, 9147791-treated cells, two replicates): 17.17 and 17.82
ZCCHC9 expression level (gene ZCCHC9, 9147791-treated cells, two replicates): 6.71 and 6.52
ZFP30 expression level (gene ZFP30, 9147791-treated cells, two replicates): 3.88 and 3.75
ZFP36L2 expression level (gene ZFP36L2, 9147791-treated cells, two replicates): 6.55 and 6.96
ZFP64 expression level (gene ZFP64, 9147791-treated cells, two replicates): 11.62 and 11.15
ZFYVE27 expression level (gene ZFYVE27, 9147791-treated cells, two replicates): 15.03 and 14.85
ZNF12 expression level (gene ZNF12, 9147791-treated cells, two replicates): 10.78 and 10.46
ZNF91 expression level (gene ZNF91, 9147791-treated cells, two replicates): 4.92 and 4.68
ZNF133 expression level (gene ZNF133, 9147791-treated cells, two replicates): 7.16 and 7.05
ZNF184 expression level (gene ZNF184, 9147791-treated cells, two replicates): 6.52 and 6.31
ZNF193 expression level (gene ZNF193, 9147791-treated cells, two replicates): 10.85
ZNF195 expression level (gene ZNF195, 9147791-treated cells, two replicates): 11.04 and 10.45
ZNF319 expression level (gene ZNF319, 9147791-treated cells, two replicates): 3.69 and 3.71
ZNF320 expression level (gene ZNF320, 9147791-treated cells, two replicates): 11.36 and 12.30
ZNF354A expression level (gene ZNF354A, 9147791-treated cells, two replicates): 9.92 and 9.13
ZNF445 expression level (gene ZNF445, 9147791-treated cells, two replicates): 5.75 and 5.83
ZNF566 expression level (gene ZNF566, 9147791-treated cells, two replicates): 3.15 and 2.91
ZNF619 expression level (gene ZNF619, 9147791-treated cells, two replicates): 2.16 and 1.99
ZNF664 expression level (gene ZNF664, 9147791-treated cells, two replicates): 57.01 and 56.94
ZNF700 expression level (gene ZNF700, 9147791-treated cells, two replicates): 10.30 and 10.08
ZNF706 expression level (gene ZNF706, 9147791-treated cells, two replicates): 34.34 and 36.65
ZNF764 expression level (gene ZNF764, 9147791-treated cells, two replicates): 5.35 and 5.20
ZNF780B expression level (gene ZNF780B, 9147791-treated cells, two replicates): 4.74 and 4.46
ZNF800 expression level (gene ZNF800, 9147791-treated cells, two replicates): 6.37 and 6.62
ZRSR2 expression level (gene ZRSR2, 9147791-treated cells, two replicates): 34.69 and 32.80
ZSWIM7 expression level (gene ZSWIM7, 9147791-treated cells, two replicates): 4.48 and 4.71
genes with changes of <fivefold in expression (of ~10,000 genes detected): 85
genes with changes of <tenfold in expression (of ~10,000 genes detected): 4
